Among the data in US9924716B2, “Molecules having pesticidal utility, and intermediates, compositions, and processes, related thereto” (Dow AgroSciences LLC, priority 2016, dated 2018) are pest or weed control and YFM rating values, retold here.

Type in all cases: in vivo
Assay [1] relates to Cabbage Looper (Trichoplusia ni, TRIPNI) second instar larvae. As to the kind of experiment: Bioassay on Cabbage Looper (CL), 128-well diet tray assay. The conditions noted are these: Cabbage Looper, Table ABC Biological Results, read-out: CL rating. The procedure:
(§1) Certain molecules disclosed in this document were tested against BAW, CEW, and CL using procedures described in the following examples. In the reporting of the results, the “BAW, CEW, & CL Rating Table” was used (See Table Section).
Bioassays on CL were conducted using a 128-well diet tray assay. one to five second instar CL larvae were placed in each well (3 mL) of the diet tray that had been previously filled with 1 mL of artificial diet to which 50 μg/cm^2 of the test molecule (dissolved in 50 μL of 90:10 acetone-water mixture) had been applied (to each of eight wells) and then allowed to dry. Trays were covered with a clear self-adhesive cover and held at 25° C., 14:10 light-dark for five to seven days. Percent mortality was recorded for the larvae in each well; activity in the eight wells was then averaged. The results are indicated in the table entitled “Table ABC: Biological Results” (See Table Section).
(§2) Bioassays on BAW and CL were conducted according to the procedures outlined in Example A: Bioassays on Beet Armyworm (“BAW”) and Cabbage Looper (“CL”) using the indicated concentrations.

The subject of assay [2] is Yellow Fever Mosquito (Aedes aegypti, AEDSAE) larvae. As to the kind of experiment: Bioassay on Yellow Fever Mosquito (YFM), 96-well plate larval assay. The conditions noted are these: Table ABC Biological Results. The procedure:
Certain molecules disclosed in this document were tested against YFM using procedures described in the following paragraph. In the reporting of the results, the “GPA & YFM Rating Table” was used (See Table Section).
Master plates containing 400 μg of a molecule dissolved in 100 μL of dimethyl sulfoxide (DMSO) (equivalent to a 4000 ppm solution) are used. A master plate of assembled molecules contains 15 μL per well. To this plate, 135 μL of a 90:10 water:acetone mixture is added to each well. A robot (Biomek® NXP Laboratory Automation Workstation) is programmed to dispense 15 μL aspirations from the master plate into an empty 96-well shallow plate (“daughter” plate). There are 6 reps (“daughter” plates) created per master. The created daughter plates are then immediately infested with YFM larvae.
The day before plates are to be treated, mosquito eggs are placed in Millipore water containing liver powder to begin hatching (4 g. into 400 mL). After the daughter plates are created using the robot, they are infested with 220 μL of the liver powder/larval mosquito mixture (about 1 day-old larvae). After plates are infested with mosquito larvae, a non-evaporative lid is used to cover the plate to reduce drying. Plates are held at room temperature for 3 days prior to grading. After 3 days, each well is observed and scored based on mortality. The results are indicated in the table entitled “Table ABC: Biological Results” (See Table Section).

For assay [3], the system named is Beet Armyworm (Spodoptera exigua, LAPHEG) second instar larvae. Briefly: Bioassay on Beet Armyworm (BAW), 128-well diet tray assay. The conditions noted are these: Beet Armyworm, Table ABC Biological Results, read-out: BAW rating. The procedure: as §1
Bioassays on BAW were conducted using a 128-well diet tray assay. one to five second instar BAW larvae were placed in each well (3 mL) of the diet tray that had been previously filled with 1 mL of artificial diet to which 50 μg/cm^2 of the test molecule (dissolved in 50 μL of 90:10 acetone-water mixture) had been applied (to each of eight wells) and then allowed to dry. Trays were covered with a clear self-adhesive cover and held at 25° C., 14:10 light-dark for five to seven days. Percent mortality was recorded for the larvae in each well; activity in the eight wells was then averaged. The results are indicated in the table entitled “Table ABC: Biological Results” (See Table Section).
as §2

In the case of `Cc1cc(C(/C=C(\F)c2ccc(C(=O)N[C@H](C)NC(=O)CC(F)(F)F)c(C(F)(F)F)c2)C(F)(F)F)cc(C)c1Cl` (stereo partly drawn) [F24, 4-((Z)-3-(4-Chloro-3,5-dimethylphenyl)-1,4,4,4-tetrafluorobut-1-en-1-yl)-2-(trifluoromethyl)-N—((R)-1-(3,3,3-trifluoropropanamido)ethyl)benzamide], the pest or weed control at 50 µg/cm2 in assay [1] and in assay [3] was 50 to 100% in each case. The YFM rating result in assay [2] was “A (80-100)”.
`C[C@H](NC(=O)CCC(F)(F)F)NC(=O)c1ccc(/C(F)=C/C(c2cc(Cl)c(Br)c(Cl)c2)C(F)(F)F)cc1C(F)(F)F` (stereo partly drawn) [F15, 4-((Z)-3-(4-Bromo-3,5-dichlorophenyl)-1,4,4,4-tetrafluorobut-1-en-1-yl)-N—((R)-1-(4,4,4-trifluorobutanamido)ethyl)-2-(trifluoromethyl)benzamide]: the pest or weed control at 50 µg/cm2 in assay [1] and in assay [3] was 50 to 100% in each case. For the same molecule, the YFM rating entry in assay [2] is listed as “A (80-100)”.
Consider `C[C@H](NC(=O)CC(F)(F)F)NC(=O)c1ccc(/C(F)=C/C(c2cc(Cl)cc(Cl)c2)C(F)(F)F)cc1C(F)(F)F` (stereo partly drawn) [F11, 4-((Z)-3-(3,5-dichlorophenyl)-1,4,4,4-tetrafluorobut-1-en-1-yl)-2-(trifluoromethyl)-N—((R)-1-(3,3,3-trifluoropropanamido)ethyl)benzamide], for which the pest or weed control at 50 µg/cm2 in assay [1] and in assay [3] was 50 to 100% each time. In addition, the YFM rating result in assay [2] was “A (80-100)”.
On to `C=Cc1c(Cl)cc(C(/C=C(\F)c2ccc(C(=O)N[C@H](C)NC(=O)CCC(F)(F)F)c(C(F)(F)F)c2)C(F)(F)F)cc1Cl` (stereo partly drawn) [F19, 4-((Z)-3-(3,5-Dichloro-4-vinylphenyl)-1,4,4,4-tetrafluorobut-1-en-1-yl)-N—((R)-1-(4,4,4-trifluorobutanamido)ethyl)-2-(trifluoromethyl)benzamide], for which the pest or weed control at 50 µg/cm2 in assay [1] and in assay [3] was 50 to 100% each time. For the same molecule, the YFM rating result in assay [2] is “A (80-100)”.
In the case of `C[C@H](NC(=O)CC(F)(F)F)NC(=O)c1ccc(/C(F)=C/C(c2cc(Br)cc(Br)c2)C(F)(F)F)cc1C(F)(F)F` (stereo partly drawn) [F22, 4-((Z)-3-(3,5-Dibromophenyl)-1,4,4,4-tetrafluorobut-1-en-1-yl)-2-(trifluoromethyl)-N—((R)-1-(3,3,3-trifluoropropanamido)ethyl)benzamide], the pest or weed control at 50 µg/cm2 in assay [1] and in assay [3] was 50 to 100% in each case. Moreover, the YFM rating entry in assay [2] was “A (80-100)”.
For the molecule `Cc1cc(C(/C=C(\F)c2ccc(C(=O)N[C@H](C)NC(=O)CC(F)(F)F)c(C(F)(F)F)c2)C(F)(F)F)cc(Cl)c1Cl` (stereo partly drawn) [PF4, 4-((Z)-3-(3,4-Dichloro-5-methylphenyl)-1,4,4,4-tetrafluorobut-1-en-1-yl)-2-(trifluoromethyl)-N—((R)-1-(3,3,3-trifluoropropanamido)ethyl)benzamide], the pest or weed control at 50 µg/cm2 in assay [1] and in assay [3] was 50 to 100% throughout. Moreover, the YFM rating result in assay [2] is “B (More than 0-Less than 80)”.
On to `C[C@H](NC(=O)CCC#N)NC(=O)c1ccc(/C(F)=C/C(c2cc(Cl)c(Cl)c(Cl)c2)C(F)(F)F)cc1C(F)(F)F` (stereo partly drawn) [F41, N—((R)-1-(3-Cyanopropanamido)ethyl)-4-((Z)-1,4,4,4-tetrafluoro-3-(3,4,5-trichlorophenyl)but-1-en-1-yl)-2-(trifluoromethyl)benzamide], for which the pest or weed control at 50 µg/cm2 in assay [1] and in assay [3] was 50 to 100% each time. Also, in assay [2], the YFM rating result is on record as “A (80-100)”.
Take `C[C@H](NC(=O)CCC(F)(F)F)NC(=O)c1ccc(/C(F)=C/C(c2ccc(F)c(Cl)c2)C(F)(F)F)cc1C(F)(F)F` (stereo partly drawn) [PF3, 4-((Z)-3-(3-Chloro-4-fluorophenyl)-1,4,4,4-tetrafluorobut-1-en-1-yl)-N—((R)-1-(4,4,4-trifluorobutanamido)ethyl)-2-(trifluoromethyl)benzamide]: the pest or weed control at 50 µg/cm2 in assay [1] and in assay [3] was 50 to 100% in each case. For the same molecule, the YFM rating result in assay [2] is given as “B (More than 0-Less than 80)”.
Consider `Cc1cc(C(/C=C(\F)c2ccc(C(=O)N[C@H](C)NC(=O)CCC(F)(F)F)c(C(F)(F)F)c2)C(F)(F)F)cc(C)c1Cl` (stereo partly drawn) [F25, 4-((Z)-3-(4-Chloro-3,5-dimethylphenyl)-1,4,4,4-tetrafluorobut-1-en-1-yl)-N—((R)-1-(4,4,4-trifluorobutanamido)ethyl)-2-(trifluoromethyl)benzamide], for which the pest or weed control at 50 µg/cm2 in assay [1] and in assay [3] was 50 to 100% each time. Moreover, in assay [2], the YFM rating entry is on record as “A (80-100)”.
With `C[C@H](NC(=O)CC(F)(F)F)NC(=O)c1ccc(/C(F)=C/C(c2ccc(Cl)c(Cl)c2)C(F)(F)F)cc1C(F)(F)F` (stereo partly drawn) [F13, 4-((Z)-3-(3,4-Dichlorophenyl)-1,4,4,4-tetrafluorobut-1-en-1-yl)-2-(trifluoromethyl)-N—((R)-1-(3,3,3-trifluoropropanamido)ethyl)benzamide], the pest or weed control at 50 µg/cm2 in assay [1] and in assay [3] was 50 to 100% each time. The YFM rating result in assay [2] is listed as “A (80-100)”.
In the case of `C[C@H](NC(=O)CC(F)(F)F)NC(=O)c1ccc(/C(F)=C/C(c2ccc(Br)c(Br)c2)C(F)(F)F)cc1C(F)(F)F` (stereo partly drawn) [F32, 4-((Z)-3-(3,4-Dibromophenyl)-1,4,4,4-tetrafluorobut-1-en-1-yl)-2-(trifluoromethyl)-N—((R)-1-(3,3,3-trifluoropropanamido)ethyl)benzamide], the pest or weed control at 50 µg/cm2 in assay [1] and in assay [3] was 50 to 100% throughout. In assay [2], the YFM rating entry is on record as “A (80-100)”.
As for `C[C@H](NC(=O)CC(F)(F)F)NC(=O)c1ccc(/C(F)=C/C(c2cc(Br)c(Cl)c(Br)c2)C(F)(F)F)cc1C(F)(F)F` (stereo partly drawn) [F26, 4-((Z)-3-(3,5-Dibromo-4-chlorophenyl)-1,4,4,4-tetrafluorobut-1-en-1-yl)-2-(trifluoromethyl)-N—((R)-1-(3,3,3-trifluoropropanamido)ethyl)benzamide], the pest or weed control at 50 µg/cm2 in assay [1] and in assay [3] was 50 to 100% each time. The YFM rating result in assay [2] is given as “A (80-100)”.
For `C[C@H](NC(=O)CCC(F)(F)F)NC(=O)c1ccc(/C(F)=C/C(c2ccc(Cl)c(Cl)c2)C(F)(F)F)cc1C(F)(F)F` (stereo partly drawn) [F14, 4-((Z)-3-(3,4-Dichlorophenyl)-1,4,4,4-tetrafluorobut-1-en-1-yl)-N—((R)-1-(4,4,4-trifluorobutanamido)ethyl)-2-(trifluoromethyl)benzamide], the pest or weed control at 50 µg/cm2 in assay [1] and in assay [3] was 50 to 100% each time. Besides, the YFM rating result in assay [2] is on record as “A (80-100)”.
Consider `C[C@H](NC(=O)CC(F)(F)F)NC(=O)c1ccc(/C(F)=C/C(c2cc(Cl)c(Cl)c(Cl)c2)C(F)(F)F)c2ccccc12` (stereo partly drawn) [PF1, 4-((Z)-1,4,4,4-Tetrafluoro-3-(3,4,5-trichlorophenyl)but-1-en-1-yl)-N—((R)-1-(3,3,3-trifluoropropanamido)ethyl)-1-naphthamide], for which the pest or weed control at 50 µg/cm2 in assay [1] and in assay [3] was 50 to 100% each time. For the same molecule, the YFM rating entry in assay [2] is listed as “B (More than 0-Less than 80)”.
